From patent US12257287B2, “Glucagon-derived peptide and use thereof” (Tianjin Institute of Pharmaceutical Research Co., Ltd., priority 2018, dated 2025)
Converted amounts (≈) assume the structure as drawn. Marks after values point to notes of the source that are not given here. Numbered stars: 1 amine (or outer) side, 2 acyl side, 3 side chain; on linkers, the order of the positions; unused ones are H or OH. Square brackets hold non-standard residues; d marks the D form. Side chains are listed from the residue outwards. Peptide text beside a SMILES is read from it. * marks the point of attachment. C20 diacid = O=C(O)CCCCCCCCCCCCCCCCCCC(=O)*; C18 diacid = O=C(O)CCCCCCCCCCCCCCCCC(=O)*; γGlu = O=C(O)[C@H](CCC(=O)[*:2])N[*:1]; AEEA = NCCOCCOCC(=O)O; Aib = CC(C)(N)C(=O)O

How the values were obtained:
[1] = Glucose tolerance test in glucose-loaded DIO mice; type: in vivo
Protocol: DIO mice fasted for 16 h, and 1 h after administration by subcutaneous injection, glucose solution (1 g/kg) was given intraperitoneally for glucose tolerance test. Blood glucose values were measured at 0.5, 1 and 1.5 h after glucose administration. The area under the blood glucose concentration curve (AUC) was calculated and compared with that of the model control group, and the blood glucose inhibition rate (%) was calculated.
(§1) Methods are the same as that in Example 3, the test results of effects on body weight are shown in Table 5, and the effects on blood glucose are shown in Table 6. In the table, 5 #-9 # are compound 27, compound 35, compound 54, compound 57, and compound 66, respectively.

human GLP-1 receptor = biological target: T1, human GLP-1 receptor (Homo sapiens, UniProt P43220); assay: GLP-1 receptor mediated cAMP production in vitro; type: cell-based; details: cells transfected with human GLP-1 receptor, 20 min at 37° C., read-out: GLP-1R (nM EC50)
T1 construct: expressed in transfected cells; host or cells: Chinese guinea pig lung cells [sic]
Description: (§2) The medium was removed, the cells were lysed, and cAMP values were detected referring to the detection method described for the assay kit.

physchem = type: physicochemical
[2] = Effect on body weight of DIO mice after 14 days' administration; type: in vivo, C57BL/6J mice; details: DIO mice
Description: C57BL/6J mice (n=35), model group (n=30) were fed with H10060 high-fat diet to induce obesity (DIO), blank control group (n=5) were fed with standard diet, both for 34 weeks. One day before the first administration, the model group was randomly divided into groups according to their body weight (average body weight range 45.0-52.0 g), with 5 mice in each group, which respectively were model control group, positive control group (semaglutide), and test sample group (1 #-4 # are compound 1, compound 4, compound 6 and compound 22, respectively). The blank control group and model control group were given saline subcutaneously every day, while the positive control group and test sample group were administrated by subcutaneous injection every day for 14 days. The body weight of the animals was weighed and recorded every day, and the change rate of body weight (%) was calculated by comparing the body weight at the last administration day with the initial body weight. (initial body weight−last body weight)/initial body weight=body weight change rate (%). Calculation formula: […]
Calculated positive values indicate a decrease and negative values indicate an increase.
as §1

GC receptor = biological target: T2, GC receptor (Homo sapiens, UniProt P47871); assay: GC receptor mediated cAMP production in vitro (HEK293 cells transfected with GC receptor); type: cell-based; details: 20 min at 37° C., read-out: GCGR (nM EC50)
T2 construct: expressed in transfected cells; host or cells: HEK293 cells
Description: as §2

[3] = Short-term administration: food intake and body weight in DIO mice; type: in vivo; details: 30 nmol/kg once every 24 h, twice, − decrease; for Rate of change in food intake (%): at 48 hours vs day before administration; for Body weight change: at 48 hours
Method in brief: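 DIO mice (mean body weight 52.5 g), 5 per group, dosed at 30 nmol/kg every 24 h for two doses, in 10 mM PBS pH 7.4; controls received solvent. Food intake and body weight at 48 h expressed as change rate versus the day before dosing.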

[4] = Accelerated chemical stability in injection solvent system (HPLC-UV); type: physicochemical; details: 14 days, phosphate buffer pH 7.3 with Tween 80 and phenol, main peak area vs day 0
Protocol: The chemical stability of the compounds of the present invention in injection solution systems was evaluated by an accelerated stability test. Methods: an appropriate amount of compound of Example 1 was weighed, and dissolved in 10 mM pH8.5 sodium hydrogen phosphate buffer. The final pH value of the solution was adjusted to 7.3 with 0.1 N hydrochloric acid, and proper amounts of Tween 80 and phenol were added. The mixture was placed at 10° C. and 37° C. for 14 days, and detected by HPLC-UV. The main peak area was obtained by peak area normalization method, and the changes compared with day 0 were investigated. The HPLC detection method was the same as that in Example 6, and the mobile phase gradient was appropriately adjusted according to the situation of chromatographic peak separation.

[5] = pH 7.5, Solubility, pH 7.5, 10 mM phosphate buffer
[6] = pH 7.5, Solubility, pH 7.5, 20 mM phosphate buffer
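Wherever Solubility is given: compound added at 2 mg per mL of phosphate buffer, with the dissolved amount determined in the supernatant.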
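Wherever Solubility, pH 7.5, 20 mM phosphate buffer is given: compound added at 2 mg per mL of phosphate buffer, with the dissolved amount determined in the supernatant.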

T1 sequence (P43220 24-463): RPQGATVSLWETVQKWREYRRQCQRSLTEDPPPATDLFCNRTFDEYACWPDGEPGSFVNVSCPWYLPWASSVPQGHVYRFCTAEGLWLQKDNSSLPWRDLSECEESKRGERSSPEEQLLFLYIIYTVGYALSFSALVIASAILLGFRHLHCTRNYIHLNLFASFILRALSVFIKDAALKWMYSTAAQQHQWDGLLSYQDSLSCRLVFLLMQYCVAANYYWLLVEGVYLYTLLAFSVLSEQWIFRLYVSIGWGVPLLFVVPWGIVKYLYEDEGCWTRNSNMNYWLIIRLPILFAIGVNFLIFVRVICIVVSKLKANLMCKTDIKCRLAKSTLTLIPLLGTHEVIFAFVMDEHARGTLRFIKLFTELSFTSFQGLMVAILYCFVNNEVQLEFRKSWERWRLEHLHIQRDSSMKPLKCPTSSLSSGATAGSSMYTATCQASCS
T2 sequence (P47871 26-477): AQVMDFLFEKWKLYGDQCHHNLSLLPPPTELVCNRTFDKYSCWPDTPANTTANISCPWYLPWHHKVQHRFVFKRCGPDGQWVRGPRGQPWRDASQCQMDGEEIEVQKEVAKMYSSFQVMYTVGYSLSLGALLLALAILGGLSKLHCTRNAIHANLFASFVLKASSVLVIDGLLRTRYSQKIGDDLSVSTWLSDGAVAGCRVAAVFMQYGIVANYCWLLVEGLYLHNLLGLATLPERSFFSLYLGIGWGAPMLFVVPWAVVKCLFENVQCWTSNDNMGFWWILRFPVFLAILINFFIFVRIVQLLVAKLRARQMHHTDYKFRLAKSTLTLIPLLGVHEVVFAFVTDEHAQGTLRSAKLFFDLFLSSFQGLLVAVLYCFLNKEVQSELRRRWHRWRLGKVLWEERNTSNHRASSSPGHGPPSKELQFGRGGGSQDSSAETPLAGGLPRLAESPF

Structure (SMILES)	AUC of blood glucose, Table 4 ([1]; DIO mice fasted 16 h, glucose 1 g/kg i.p. 1 h after s.c. administration, 0.5, 1, 1.5 h) [mmol·h/L]	AUC reduction rate (%), Table 4 ([1]; blood glucose inhibition rate compared with model control group, DIO mice, glucose 1 g/kg i.p.)	EC50 (human GLP-1 receptor) [nM]	Solubility, pH 7.5, 20 mM phosphate buffer (physchem; pH 7.5)	solubility (physchem; [5]) [µg/mL]	solubility (physchem; pH 8, Solubility, pH 8.0, 10 mM phosphate buffer) [µg/mL]	solubility (physchem; pH 8, Solubility, pH 8.0, 20 mM phosphate buffer) [µg/mL]	body weight change rate, Table 3 ([2]; subcutaneous injection every day for 14 days, (initial−last)/initial, positive values indicate a decrease) [%]	EC50 (GC receptor) [nM]	Rate of change in food intake (%) [3] [%]	Body weight change [3] [g]	solubility (physchem; [6]) [µg/mL]	Change in purity % (10° C.) [4] [%]	Change in purity % (37° C.) [4] [%]	glucose tolerance / blood glucose lowering (in words) ([1]; DIO mice, conclusions on Tables 4 and 6)	body weight reduction (in words) ([2]; 14 days, conclusions on Tables 3 and 5)
CCCCCCCCCCCCCCCC(=O)N[C@@H](CCC(=O)N[C@@H](CCC(=O)NCCCC[C@H](NC(=O)[C@H](CC(=O)O)NC(=O)[C@H](CO)NC(=O)[C@@H](NC(=O)[C@H](Cc1ccccc1)NC(=O)[C@@H](NC(=O)CNC(=O)[C@H](CCC(N)=O)NC(=O)C(C)(C)NC(=O)[C@@H](N)Cc1c[nH]cn1)[C@@H](C)O)[C@@H](C)O)C(=O)N[C@@H](CO)C(=O)N[C@@H](CCCCN)C(=O)N[C@@H](Cc1ccc(O)cc1)C(=O)N[C@@H](CC(C)C)C(=O)N[C@@H](CCC(=O)O)C(=O)N[C@@H](CCC(=O)O)C(=O)N[C@@H](CCCNC(=N)N)C(=O)N[C@@H](C)C(=O)N[C@@H](C)C(=O)N[C@@H](CCCCN)C(=O)N[C@@H](CCC(=O)O)C(=O)N[C@@H](Cc1ccccc1)C(=O)N[C@H](C(=O)N[C@@H](C)C(=O)N[C@@H](Cc1c[nH]c2ccccc12)C(=O)N[C@@H](CC(C)C)C(=O)N[C@@H](CCCCN)C(=O)N[C@@H](CCC(=O)O)C(=O)NCC(=O)NCC(=O)N1CCC[C@H]1C(=O)N[C@@H](CO)C(=O)N[C@@H](CO)C(=O)NCC(N)=O)C(C)C)C(=O)O)C(=O)O [Compound 3] (HELM PEPTIDE1{H.[Aib].Q.G.T.F.T.S.D.K.S.K.Y.L.E.E.R.A.A.K.E.F.V.A.W.L.K.E.G.G.P.S.S.G.[am]}|PEPTIDE2{[CCCCCCCCCCCCCCCC(=O)[*:2]].[gGlu].[gGlu]}$PEPTIDE1,PEPTIDE2,10:R3-3:R2$$$V2.0; N-terminus assumed)	8.66 ± 2.14	59.1** %	20.7	Insoluble	60 (≈ 14.2 µM)	170 (≈ 40.3 µM)	90 (≈ 21.3 µM)	22.0	0.1	–	–	–	–	–	–	–
CC[C@H](C)[C@H](NC(=O)[C@H](Cc1ccccc1)NC(=O)[C@H](CCC(=O)O)NC(=O)[C@H](CCCCN)NC(=O)[C@H](C)NC(=O)[C@H](C)NC(=O)[C@H](CCCNC(=N)N)NC(=O)[C@H](CCC(=O)O)NC(=O)[C@H](CC(=O)O)NC(=O)[C@H](CC(C)C)NC(=O)[C@H](Cc1ccc(O)cc1)NC(=O)[C@H](CCCCN)NC(=O)[C@H](CO)NC(=O)[C@H](CCCCNC(=O)COCCOCCNC(=O)COCCOCCNC(=O)CC[C@H](NC(=O)CCCCCCCCCCCCCCCCC(=O)O)C(=O)O)NC(=O)[C@H](CC(=O)O)NC(=O)[C@H](CO)NC(=O)[C@@H](NC(=O)[C@H](Cc1ccccc1)NC(=O)[C@@H](NC(=O)CNC(=O)[C@H](CCC(N)=O)NC(=O)C(C)(C)NC(=O)[C@@H](N)Cc1c[nH]cn1)[C@@H](C)O)[C@@H](C)O)C(=O)N[C@@H](C)C(=O)N[C@@H](Cc1c[nH]c2ccccc12)C(=O)N[C@@H](CC(C)C)C(=O)N[C@@H](CCC(=O)O)C(=O)NCC(=O)NCC(=O)N1CCC[C@H]1C(=O)N[C@@H](CO)C(=O)N[C@@H](CO)C(=O)NCC(N)=O [Compound 75] (H-H[Aib]QGTFTSDK([AEEA-AEEA-γGlu-C18 diacid])SKYLDERAAKEFIAWLEGGPSSG-NH2; N-terminus assumed)	–	–	0.141	–	> 2000	–	–	–	0.087	−60	-2.4	> 2000	−1.9	−4.5	–	–
CC[C@H](C)[C@H](NC(=O)[C@H](Cc1ccccc1)NC(=O)[C@H](CCC(=O)O)NC(=O)[C@H](CCCCN)NC(=O)[C@H](C)NC(=O)[C@H](C)NC(=O)[C@H](CCCNC(=N)N)NC(=O)[C@H](CCC(=O)O)NC(=O)[C@H](CC(=O)O)NC(=O)[C@H](CC(C)C)NC(=O)[C@H](Cc1ccc(O)cc1)NC(=O)[C@H](CCCCN)NC(=O)[C@H](CO)NC(=O)[C@H](CCCCNC(=O)COCCOCCNC(=O)COCCOCCNC(=O)CC[C@H](NC(=O)CCCCCCCCCCCCCCCCCCC(=O)O)C(=O)O)NC(=O)[C@H](CC(=O)O)NC(=O)[C@H](CO)NC(=O)[C@@H](NC(=O)[C@H](Cc1ccccc1)NC(=O)[C@@H](NC(=O)CNC(=O)[C@H](CCC(N)=O)NC(=O)C(C)(C)NC(=O)[C@@H](N)Cc1c[nH]cn1)[C@@H](C)O)[C@@H](C)O)C(=O)N[C@@H](C)C(=O)N[C@@H](Cc1c[nH]c2ccccc12)C(=O)N[C@@H](CC(C)C)C(=O)N[C@@H](CCC(=O)O)C(=O)N[C@@H](C)C(=O)NCC(=O)NCC(=O)N1CCC[C@H]1C(=O)N[C@@H](CO)C(=O)N[C@@H](CO)C(=O)NCC(N)=O [Compound 77] (H-H[Aib]QGTFTSDK([AEEA-AEEA-γGlu-C20 diacid])SKYLDERAAKEFIAWLEAGGPSSG-NH2; N-terminus assumed)	–	–	0.291	–	–	–	–	–	0.076	−51	-2.9	–	–	–	–	–
CC[C@H](C)[C@H](NC(=O)[C@H](Cc1ccccc1)NC(=O)[C@H](CCC(=O)O)NC(=O)[C@H](CCCCN)NC(=O)[C@H](C)NC(=O)[C@H](C)NC(=O)[C@H](CCCNC(=N)N)NC(=O)[C@H](CCC(=O)O)NC(=O)[C@H](CCC(=O)O)NC(=O)[C@H](CC(C)C)NC(=O)[C@H](Cc1ccc(O)cc1)NC(=O)[C@H](CCCCN)NC(=O)[C@H](CO)NC(=O)[C@H](CCCCNC(=O)COCCOCCNC(=O)COCCOCCNC(=O)CC[C@H](NC(=O)CCCCCCCCCCCCCCCCC(=O)O)C(=O)O)NC(=O)[C@H](CC(=O)O)NC(=O)[C@H](CO)NC(=O)[C@@H](NC(=O)[C@H](Cc1ccccc1)NC(=O)[C@@H](NC(=O)CNC(=O)[C@H](CCC(N)=O)NC(=O)C(C)(C)NC(=O)[C@@H](N)Cc1c[nH]cn1)[C@@H](C)O)[C@@H](C)O)C(=O)N[C@@H](C)C(=O)N[C@@H](Cc1c[nH]c2ccccc12)C(=O)N[C@@H](CC(C)C)C(=O)N[C@@H](CCC(=O)O)C(=O)N[C@@H](C)C(=O)NCC(=O)NCC(=O)N1CCC[C@H]1C(=O)N[C@@H](CO)C(=O)N[C@@H](CO)C(=O)NCC(N)=O [Compound 27] (H-H[Aib]QGTFTSDK([AEEA-AEEA-γGlu-C18 diacid])SKYLEERAAKEFIAWLEAGGPSSG-NH2; N-terminus assumed)	–	–	–	–	> 2000	–	–	–	0.014	−55	-1.9	> 2000	−1.8	−4.6	significantly improved glucose tolerance	significantly reduced body weight
